≈ marks a conversion by molar mass, not a printed value. Where a SMILES comes first, the peptide text is derived from it. Bridges are numbered along the chain shown (N, C = ends). [ ]: non-standard residue; d: D form. d(aIle) = CC[C@H](C)[C@@H](N)C(=O)O; dNMeF = CN[C@H](Cc1ccccc1)C(=O)O
Assays:
Type in all cases: functional
[1] = system: Staphylococcus aureus; assay: Antibacterial activity against methicillin resistant Staphylococcus aureus ATCC 33591 incubated for 24 hrs
[2] = system: Bacillus subtilis; assay: Antibacterial activity against Bacillus subtilis 168 incubated for 24 hrs
[3] = system: Staphylococcus aureus; assay: Antibacterial activity against Staphylococcus aureus ATCC 29213 by CLSI-based broth microdilution method
[4] = system: Staphylococcus aureus; assay: Antibacterial activity against methicillin resistant Staphylococcus aureus
[5] = system: Staphylococcus aureus; assay: Antibacterial activity against Staphylococcus aureus ATCC 29213
[6] = system: Bacillus subtilis; assay: Antibacterial activity against Bacillus subtilis ATCC 6051 incubated for 24 hrs by CLSI based broth microdilution method
[7] = system: Staphylococcus aureus; assay: Antibacterial activity against Staphylococcus aureus ATCC 29213 incubated for 24 hrs by CLSI-based broth microdilution method
[8] = system: Bacillus subtilis; assay: Antibacterial activity against Bacillus subtilis ATCC 6051 incubated for 16 hrs by UV/Visible absorbance method
[9] = system: Staphylococcus aureus; assay: Antibacterial activity against Staphylococcus aureus ATCC 29213 incubated for 16 hrs by UV/Visible absorbance method

CC[C@H](C)[C@H](NC(=O)[C@@H](Cc1ccccc1)NC)C(=O)N[C@@H](CO)C(=O)N[C@H](CCC(N)=O)C(=O)N[C@@H](C(=O)N[C@H](C(=O)N[C@@H](CO)C(=O)N[C@H]1C(=O)N[C@@H](C)C(=O)N[C@@H](CCCN)C(=O)N[C@@H]([C@@H](C)CC)C(=O)O[C@H]1C)[C@@H](C)CC)[C@@H](C)CC
MIC [1]: 2 µg/mL (≈ 1.66 µM)
MIC [2]: 0.25 µg/mL (≈ 0.208 µM)

CC[C@H](C)[C@H](NC(=O)[C@@H](Cc1ccccc1)NC)C(=O)N[C@@H](CO)C(=O)N[C@H](CC(N)=O)C(=O)N[C@@H](C(=O)N[C@H](C(=O)N[C@@H](C)C(=O)N[C@H]1C(=O)N[C@@H](C)C(=O)N[C@@H](CCCNC(=N)N)C(=O)N[C@@H]([C@@H](C)CC)C(=O)O[C@H]1C)[C@@H](C)CC)[C@@H](C)CC
MIC [3]: 2 µg/mL (≈ 1.65 µM)
MIC [4]: 0.5 µg/mL (≈ 0.412 µM)

CC[C@H](C)[C@H](NC(=O)[C@@H](Cc1ccccc1)NC)C(=O)N[C@@H](C)C(=O)N[C@H](CCC(N)=O)C(=O)N[C@@H](C(=O)N[C@H](C(=O)N[C@@H](CO)C(=O)N[C@H]1C(=O)N[C@@H](C)C(=O)N[C@@H](CCCCN)C(=O)N[C@@H]([C@@H](C)CC)C(=O)O[C@H]1C)[C@@H](C)CC)[C@@H](C)CC
MIC [4]: 1 µg/mL (≈ 0.833 µM)
MIC [5]: 0.5 µg/mL (≈ 0.416 µM)

CC[C@H](C)[C@H](NC(=O)[C@@H](Cc1ccccc1)NC)C(=O)N[C@@H](CO)C(=O)N[C@H](CCCNC(=N)N)C(=O)N[C@@H](C(=O)N[C@H](C(=O)N[C@@H](C)C(=O)N[C@H]1C(=O)N[C@@H](C)C(=O)N[C@@H](CCCNC(=N)N)C(=O)N[C@@H]([C@@H](C)CC)C(=O)O[C@H]1C)[C@@H](C)CC)[C@@H](C)CC
MIC [3]: 2 µg/mL (≈ 1.59 µM)
MIC [4]: 1 µg/mL (≈ 0.796 µM)

CC[C@H](C)[C@H](NC(=O)[C@@H](Cc1ccccc1)NC)C(=O)N[C@@H](CO)C(=O)N[C@H](CCC(N)=O)C(=O)N[C@@H](C(=O)N[C@H](C(=O)N[C@@H](CO)C(=O)N[C@H]1C(=O)N[C@@H](C)C(=O)N[C@@H](CCCCNC(=N)N)C(=O)N[C@@H]([C@@H](C)CC)C(=O)O[C@H]1C)[C@@H](C)CC)[C@@H](C)CC
MIC [1]: 1 µg/mL (≈ 0.795 µM)
MIC [2]: 0.125 µg/mL (≈ 0.0993 µM)

CC[C@H](C)[C@H](NC(=O)[C@@H](Cc1ccccc1)NC)C(=O)N[C@@H](CO)C(=O)N[C@H](CCCCN)C(=O)N[C@@H](C(=O)N[C@H](C(=O)N[C@@H](C)C(=O)N[C@H]1C(=O)N[C@@H](C)C(=O)N[C@@H](CCCNC(=N)N)C(=O)N[C@@H]([C@@H](C)CC)C(=O)O[C@H]1C)[C@@H](C)CC)[C@@H](C)CC
MIC [6]: 1 µg/mL (≈ 0.814 µM)
MIC [7]: 4 µg/mL (≈ 3.26 µM)

CC[C@H](C)[C@H](NC(=O)[C@@H](Cc1ccccc1)NC)C(=O)N[C@@H](CO)C(=O)N[C@H](CCC(N)=O)C(=O)N[C@@H](C(=O)N[C@H](C(=O)N[C@@H](CO)C(=O)N[C@H]1C(=O)N[C@@H](CCCCN)C(=O)N[C@@H](CCCNC(=N)N)C(=O)N[C@@H]([C@@H](C)CC)C(=O)O[C@H]1C)[C@@H](C)CC)[C@@H](C)CC
MIC [8]: 1 µg/mL (≈ 0.768 µM)
MIC [5]: 6 µg/mL (≈ 4.61 µM)

CC[C@H](C)[C@H](NC(=O)[C@@H](Cc1ccccc1)NC)C(=O)N[C@@H](CO)C(=O)N[C@H](CCC(N)=O)C(=O)N[C@@H](C(=O)N[C@H](C(=O)N[C@@H](CO)C(=O)N[C@H]1C(=O)N[C@@H](C)C(=O)N[C@@H](CCN)C(=O)N[C@@H]([C@@H](C)CC)C(=O)O[C@H]1C)[C@@H](C)CC)[C@@H](C)CC
MIC [1]: 2 µg/mL (≈ 1.68 µM)
MIC [2]: 1 µg/mL (≈ 0.841 µM)

CC[C@H](C)[C@H](NC(=O)[C@@H](Cc1ccccc1)NC)C(=O)N[C@@H](CO)C(=O)N[C@H](C)C(=O)N[C@@H](C(=O)N[C@H](C(=O)N[C@@H](C)C(=O)N[C@H]1C(=O)N[C@@H](C)C(=O)N[C@@H](CCCCN)C(=O)N[C@@H]([C@@H](C)CC)C(=O)O[C@H]1C)[C@@H](C)CC)[C@@H](C)CC
MIC [9]: 1 µg/mL (≈ 0.875 µM)
MIC [8]: 4 µg/mL (≈ 3.5 µM)

CC[C@H](C)[C@H](NC(=O)[C@@H](Cc1ccccc1)NC)C(=O)N[C@@H](CO)C(=O)N[C@H](CCC(N)=O)C(=O)N[C@@H](C(=O)N[C@H](C(=O)N[C@@H](CO)C(=O)N[C@H]1C(=O)N[C@@H](C)C(=O)N[C@@H](CCCCN)C(=O)N[C@@H]([C@@H](C)CC)C(=O)O[C@H]1C)[C@@H](C)CC)[C@@H](C)CC
MIC [1]: 1 µg/mL (≈ 0.822 µM)
MIC [2]: 0.25 µg/mL (≈ 0.206 µM)

CC[C@H](C)[C@H](NC(=O)[C@@H](Cc1ccccc1)NC)C(=O)N[C@@H](CO)C(=O)N[C@H](CCCCN)C(=O)N[C@@H](C(=O)N[C@H](C(=O)N[C@@H](C)C(=O)N[C@H]1C(=O)N[C@@H](C)C(=O)NC(CCCN)C(=O)N[C@@H]([C@@H](C)CC)C(=O)O[C@H]1C)[C@@H](C)CC)[C@@H](C)CC (stereo not given in full)
MIC [9]: 2 µg/mL (≈ 1.69 µM)
MIC [8]: 2 µg/mL (≈ 1.69 µM)

CC[C@H](C)[C@H](NC(=O)[C@@H](Cc1ccccc1)NC)C(=O)N[C@@H](CO)C(=O)N[C@H](CCC(N)=O)C(=O)N[C@@H](C(=O)N[C@H](C(=O)N[C@@H](CO)C(=O)N[C@H]1C(=O)N[C@@H](C)C(=O)NC(CN)C(=O)N[C@@H]([C@@H](C)CC)C(=O)O[C@H]1C)[C@@H](C)CC)[C@@H](C)CC (stereo not given in full)
MIC [1]: 4 µg/mL (≈ 3.41 µM)
MIC [2]: 0.5 µg/mL (≈ 0.426 µM)

CC[C@H](C)[C@H](NC(=O)[C@@H](Cc1ccccc1)NC)C(=O)N[C@@H](CO)C(=O)N[C@H](CCC(N)=O)C(=O)N[C@@H](C(=O)N[C@H](C(=O)N[C@@H](CO)C(=O)N[C@H]1C(=O)N[C@@H](C)C(=O)N[C@@H](CNC(=N)N)C(=O)N[C@@H]([C@@H](C)CC)C(=O)O[C@H]1C)[C@@H](C)CC)[C@@H](C)CC
MIC [1]: 4 µg/mL (≈ 3.29 µM)
MIC [2]: 1 µg/mL (≈ 0.822 µM)

CC[C@H](C)[C@H](NC(=O)[C@@H](Cc1ccccc1)NC)C(=O)N[C@@H](CO)C(=O)N[C@H](CCC(N)=O)C(=O)N[C@@H](C(=O)N[C@H](C(=O)N[C@@H](C)C(=O)N[C@H]1C(=O)N[C@@H](C)C(=O)N[C@@H](CCCCN)C(=O)N[C@@H]([C@@H](C)CC)C(=O)O[C@H]1C)[C@@H](C)CC)[C@@H](C)CC
MIC [4]: 32 µg/mL (≈ 26.7 µM)
MIC [5]: 32 µg/mL (≈ 26.7 µM)

CC[C@H](C)[C@H](NC(=O)[C@H](N)Cc1ccccc1)C(=O)N[C@@H](CO)C(=O)N[C@H](CCC(N)=O)C(=O)N[C@@H](C(=O)N[C@H](C(=O)N[C@@H](CO)C(=O)N[C@H]1C(=O)N[C@@H](C)C(=O)N[C@@H](CCCNC(=N)N)C(=O)N[C@@H]([C@@H](C)CC)C(=O)O[C@H]1C)[C@@H](C)CC)[C@@H](C)CC
MIC [3]: 2 µg/mL (≈ 1.63 µM)

CC[C@H](C)[C@H](NC(=O)[C@H](NC(=O)[C@@H](CCC(N)=O)NC(=O)[C@H](CO)NC(=O)[C@@H](NC(=O)[C@H](Cc1ccccc1)N(C)C)[C@@H](C)CC)[C@@H](C)CC)C(=O)N[C@@H](CO)C(=O)N[C@H]1C(=O)N[C@@H](C)C(=O)N[C@@H](CCCNC(=N)N)C(=O)N[C@@H]([C@@H](C)CC)C(=O)O[C@H]1C
MIC [3]: 32 µg/mL (≈ 25.4 µM)

CC[C@H](C)[C@H](NC(=O)[C@H](Cc1ccccc1)NC)C(=O)N[C@@H](CO)C(=O)N[C@H](CCC(N)=O)C(=O)N[C@@H](C(=O)N[C@H](C(=O)N[C@@H](CO)C(=O)N[C@H]1C(=O)N[C@@H](C)C(=O)N[C@@H](CCCNC(=N)N)C(=O)N[C@@H]([C@@H](C)CC)C(=O)O[C@H]1C)[C@@H](C)CC)[C@@H](C)CC
MIC [7]: 2 µg/mL (≈ 1.61 µM)

CC[C@H](C)[C@H](NC(=O)[C@@H](N)Cc1ccccc1)C(=O)N[C@@H](CO)C(=O)N[C@H](CCC(N)=O)C(=O)N[C@@H](C(=O)N[C@H](C(=O)N[C@@H](CO)C(=O)N[C@H]1C(=O)N[C@@H](C)C(=O)N[C@@H](CCCNC(=N)N)C(=O)N[C@@H]([C@@H](C)CC)C(=O)O[C@H]1C)[C@@H](C)CC)[C@@H](C)CC
MIC [7]: 2 µg/mL (≈ 1.63 µM)

CC[C@H](C)[C@H](NC(=O)[C@@H](Cc1ccccc1)NC(=O)c1ccccc1)C(=O)N[C@@H](CO)C(=O)N[C@H](CCC(N)=O)C(=O)N[C@@H](C(=O)N[C@H](C(=O)N[C@@H](CO)C(=O)N[C@H]1C(=O)N[C@@H](C)C(=O)N[C@@H](CCCNC(=N)N)C(=O)N[C@@H]([C@@H](C)CC)C(=O)O[C@H]1C)[C@@H](C)CC)[C@@H](C)CC
MIC [7]: 8 µg/mL (≈ 5.99 µM)

CC[C@H](C)[C@H](NC(=O)[C@@H](Cc1ccccc1)NC)C(=O)N[C@@H](CO)C(=O)N[C@H](CCC(N)=O)C(=O)N[C@@H](C(=O)N[C@H](C(=O)N[C@@H](CO)C(=O)N[C@H]1C(=O)N[C@@H](C)C(=O)N[C@@H](CCNC(=N)N)C(=O)N[C@@H]([C@@H](C)CC)C(=O)O[C@H]1C)[C@@H](C)CC)[C@@H](C)CC
MIC [1]: 1 µg/mL (≈ 0.813 µM)
MIC [2]: 0.5 µg/mL (≈ 0.406 µM)

CC[C@H](C)[C@H](NC(=O)[C@@H](Cc1ccccc1)NC)C(=O)N[C@@H](CO)C(=O)N[C@H](CCC(N)=O)C(=O)N[C@@H](C(=O)N[C@H](C(=O)N[C@@H](C)C(=O)N[C@H]1C(=O)N[C@@H](C)C(=O)N[C@@H](CCCNC(=N)N)C(=O)N[C@@H]([C@@H](C)CC)C(=O)O[C@H]1C)[C@@H](C)CC)[C@@H](C)CC
MIC [3]: 32 µg/mL (≈ 26 µM)
MIC [1]: 32 µg/mL (≈ 26 µM)

CC[C@H](C)[C@H](NC(=O)[C@@H](Cc1ccccc1)N(C)C)C(=O)N[C@@H](CO)C(=O)N[C@H](CCC(N)=O)C(=O)N[C@@H](C(=O)N[C@H](C(=O)N[C@@H](CO)C(=O)N[C@H]1C(=O)N[C@@H](C)C(=O)N[C@@H](CCCNC(=N)N)C(=O)N[C@@H]([C@@H](C)CC)C(=O)O[C@H]1C)[C@@H](C)CC)[C@@H](C)CC
MIC [7]: 16 µg/mL (≈ 12.7 µM)

CC[C@H](C)[C@H](NC(=O)[C@@H](Cc1ccccc1)NC)C(=O)N[C@@H](CO)C(=O)N[C@H](CCC(N)=O)C(=O)N[C@@H](C(=O)N[C@H](C(=O)N[C@@H](CO)C(=O)N[C@H]1C(=O)N[C@@H](C)C(=O)N[C@@H](CCCCN)C(=O)N[C@@H](C)C(=O)O[C@H]1C)[C@@H](C)CC)[C@@H](C)CC (H-[dNMeF]IS[dQ][d(aIle)]IS[dT]AKA; ester 8-C)
MIC [9]: 4 µg/mL (≈ 3.41 µM)
MIC [8]: 8 µg/mL (≈ 6.81 µM)

Reference: ChEMBL document CHEMBL4680273, “Teixobactin: A Paving Stone toward a New Class of Antibiotics?” (2020)
